Strand notation (5' to 3'): a small letter for the sugar, then the base; units joined by * are phosphorothioate-linked, units joined directly phosphodiester-linked; [ ] holds rarer units or linkages, { } end groups; capitals alone tell only the bases. k = constrained ethyl (cEt); [5mC] = 5-methylcytosine; d = 2'-deoxy (DNA)
Tested on: Yap1 mRNA
Assay: Antisense inhibition of human Yap1 in A-431 cells by cEt gapmers, single dose (Example 2, RTS4814)
Format: cell-based
How it was run: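 A-431 cells (5,000/well) received 2,000 nM oligonucleotide by free uptake for about 48 h. Yap1 mRNA was then quantified by RT-qPCR with primer probe set RTS4814, normalized to RIBOGREEN total RNA, and reported as % of untreated control; asterisked values mark oligos inside the amplicon.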

[1] = A-431 cells, 5,000 cells per well, free uptake, 2,000 nM modified oligonucleotide, approx. 48 hours, RTS4814, normalized to RIBOGREEN, Table 4, asterisk (*) = targets amplicon region of primer probe set
[2] = Yap1 mRNA as percent of untreated control, A-431 cells, 3-10-3 cEt gapmers targeting SEQ ID NO.: 1, and 2, Table 31
[3] = Table 24, Yap1 mRNA as percent of untreated control, 3-10-3 cEt gapmers targeting SEQ ID NO.: 1, and 2
[4] = Table 22, Yap1 mRNA as percent of untreated control, 3-10-3 cEt gapmers, single dose
[5] = Table 21, Yap1 mRNA, percent of untreated control, 3-10-3 cEt gapmers targeting SEQ ID NO.: 1 and 2
[6] = Table 19, A-431 cells, 5,000 cells per well, free uptake, 2,000 nM modified oligonucleotide, approx. 48 hours, RTS4814, normalized to RIBOGREEN, Yap1 mRNA as percent of untreated control
[7] = Yap1 mRNA as percent of untreated control, A-431 cells, 3-10-3 cEt gapmers targeting SEQ ID NO.: 1, and 2, Table 30
[8] = Table 25, Yap1 mRNA as percent of untreated control, 3-10-3 cEt gapmers targeting SEQ ID NO.: 1, and 2
[9] = Table 6, A-431 cells, 5,000 cells per well, free uptake, 2,000 nM modified oligonucleotide, approx. 48 hours, RTS4814, normalized to RIBOGREEN, Yap1 mRNA relative to untreated control cells
[10] = Table 20, Yap1 mRNA, percent of untreated control, 3-10-3 cEt gapmers targeting SEQ ID NO.: 1 and 2
[11] = Table 18, A-431 cells, 5,000 cells per well, free uptake, 2,000 nM modified oligonucleotide, approx. 48 hours, RTS4814, normalized to RIBOGREEN, Yap1 mRNA as percent of untreated control
[12] = Table 32, Yap1 mRNA, percent of untreated control, 3-10-3 cEt gapmers targeting SEQ ID NO.: 1, and 2

“716427 (kA*kG*k[5mC]*d[5mC]*d[5mC]*d[5mC]*d[5mC]*dA*dA*dA*dA*dT*dG*kA*kA*k[5mC]; antisense) [Compound 716427]” was tested, and the “YAP1 (% UTC)” value [1] was 86 % UTC.

“1075473 (kA*kG*kT*dT*dA*dT*dA*dA*d[5mC]*dT*dG*dT*dA*k[5mC]*kT*kA; antisense) [compound 1075473]” was tested, and the “YAP1 (% UTC)” value [2] was 89 % UTC.

With “1074538 (antisense kA*kT*k[5mC]*d[5mC]*dA*d[5mC]*dA*dG*dT*dA*dA*dT*dA*kG*k[5mC]*kT) [Compound 1074538]” the “YAP1 (% UTC)” value [3] was 31 % UTC.

For “1076488 (antisense kG*k[5mC]*k[5mC]*dA*dA*dT*dA*dA*dG*dA*dT*dA*dA*kG*kA*kA) [Compound 1076488]”, the “YAP1 (% UTC)” value [4] was 19 % UTC.

With “1074471 (k[5mC]*k[5mC]*k[5mC]*d[5mC]*d[5mC]*d[5mC]*d[5mC]*dA*d[5mC]*d[5mC]*dG*dA*d[5mC]*k[5mC]*k[5mC]*kT; antisense) [Compound 1074471]” the “YAP1 (% UTC)” value [5] was 69 % UTC.

In the case of “1075461 (antisense k[5mC]*kT*kA*dA*dA*dT*dA*dA*d[5mC]*d[5mC]*dA*dA*dG*kG*kA*kT) [Compound 1075461]”, the “YAP1 (% UTC)” value [6] is reported as 64 % UTC.

For “1074928 (antisense kA*kT*kA*d[5mC]*dA*dA*d[5mC]*dA*dG*dG*d[5mC]*d[5mC]*dT*kG*k[5mC]*kA) [compound 1074928]”, the “YAP1 (% UTC)” value [7] was 83 % UTC.

With “1074789 (kA*kT*k[5mC]*dA*dA*d[5mC]*d[5mC]*dA*dT*dA*dA*dG*dT*kA*kG*kA; antisense) [Compound 1074789]” the “YAP1 (% UTC)” value [6] was 17 % UTC.

With “1075344 (antisense kT*kA*kA*d[5mC]*dT*dA*dA*dA*dA*dG*dG*dG*dA*kG*kT*kA) [compound 1075344]” the “YAP1 (% UTC)” value [7] was 91 % UTC.

In the case of “1074919 (antisense k[5mC]*kT*k[5mC]*dA*dA*dG*dT*dT*dA*d[5mC]*dA*dT*d[5mC]*k[5mC]*k[5mC]*kG) [Compound 1074919]”, the “YAP1 (% UTC)” value [5] is reported as 48 % UTC.

In the case of “716361 (kG*kG*kT*dT*dG*dA*dG*dG*d[5mC]*dG*dG*d[5mC]*dG*kG*k[5mC]*kT; antisense) [Compound 716361]”, the “YAP1 (% UTC)” value [1] is reported as 75 % UTC.

For “1075856 (antisense k[5mC]*k[5mC]*kT*dA*dA*dT*d[5mC]*dA*dA*dG*dT*dT*d[5mC]*kT*kG*k[5mC]) [compound 1075856]”, the “YAP1 (% UTC)” value [7] was 40 % UTC.

In the case of “1074923 (antisense kG*kG*kG*d[5mC]*dG*dG*dT*dA*dA*d[5mC]*dT*d[5mC]*dT*kT*k[5mC]*kT) [Compound 1074923]”, the “YAP1 (% UTC)” value [8] is reported as 73 % UTC.

For “1074739 (kG*kA*k[5mC]*dT*d[5mC]*dT*dT*dA*dG*dG*dT*d[5mC]*dT*k[5mC]*k[5mC]*kT; antisense) [compound 1074739]”, the “YAP1 (% UTC)” value (Table 33, Yap1 mRNA, percent of untreated control, 3-10-3 cEt gapmers targeting SEQ ID NO.: 1, and 2) was 24 % UTC.

“716456 (kA*k[5mC]*k[5mC]*dA*d[5mC]*dA*d[5mC]*dT*dA*dT*dT*dA*dT*kA*kA*kA; antisense) [Compound 716456]” was tested, and the “YAP1 (% UTC)” value [9] was 96 % UTC.

With “1075558 (kA*kT*kA*dT*dT*dA*dA*dG*dG*dT*dG*dG*d[5mC]*kT*kT*kA; antisense) [Compound 1075558]” the “YAP1 (% UTC)” value [10] was 51 % UTC.

For “1075300 (k[5mC]*kG*kT*dG*dA*dA*dA*dA*dG*dA*dA*dA*dG*kG*k[5mC]*k[5mC]; antisense) [Compound 1075300]”, the “YAP1 (% UTC)” value [11] was 98 % UTC.

“1075691 (k[5mC]*kG*kT*d[5mC]*dA*dA*dA*dA*dT*dT*dA*dA*d[5mC]*kA*kG*kA; antisense) [Compound 1075691]” was tested, and the “YAP1 (% UTC)” value [8] was 46 % UTC.

With “1074603 (antisense kT*kT*k[5mC]*d[5mC]*dA*dG*d[5mC]*dT*dA*dA*d[5mC]*dT*d[5mC]*kA*kA*kA) [Compound 1074603]” the “YAP1 (% UTC)” value [8] was 17 % UTC.

For “1075240 (antisense kT*kA*kA*dA*d[5mC]*dG*dG*dT*dT*dT*dA*dT*dA*kT*kT*k[5mC]) [Compound 1075240]”, the “YAP1 (% UTC)” value [4] was 16 % UTC.

“1074827 (kT*kA*kA*dA*dA*dT*d[5mC]*d[5mC]*dA*d[5mC]*d[5mC]*dT*dG*kA*kG*k[5mC]; antisense) [Compound 1074827]” was tested, and the “YAP1 (% UTC)” value [8] was 39 % UTC.

For “1075307 (kA*kT*kT*dA*dA*dA*d[5mC]*dG*dA*dA*dA*d[5mC]*dA*k[5mC]*kG*kG; antisense) [Compound 1075307]”, the “YAP1 (% UTC)” value [8] was 28 % UTC.

For “1075825 (k[5mC]*k[5mC]*k[5mC]*d[5mC]*dT*dA*dA*dA*dG*dA*dA*dG*dA*kT*kT*kT; antisense) [compound 1075825]”, the “YAP1 (% UTC)” value [2] was 44 % UTC.

In the case of “716356 (k[5mC]*kG*kA*dG*dG*dT*dG*dG*dA*dG*dA*dA*dG*k[5mC]*kG*kG; antisense) [Compound 716356]”, the “YAP1 (% UTC)” value (Table 5, A-431 cells, 5,000 cells per well, free uptake, 2,000 nM modified oligonucleotide, approx. 48 hours, RTS4814, normalized to RIBOGREEN, Yap1 mRNA relative to untreated control cells) is reported as 112 % UTC.

With “1074864 (k[5mC]*kA*kT*dA*dT*dG*dA*dG*d[5mC]*dA*dT*dG*d[5mC]*kT*k[5mC]*kT; antisense) [compound 1074864]” the “YAP1 (% UTC)” value [7] was 47 % UTC.

In the case of “1076358 (kG*kT*kT*dT*dA*dA*d[5mC]*dA*dA*dA*d[5mC]*dT*dT*kG*kT*kA; antisense) [Compound 1076358]”, the “YAP1 (% UTC)” value [10] is reported as 43 % UTC.

With “1075728 (k[5mC]*kT*kT*dT*dA*dT*d[5mC]*dG*dG*dA*dG*dG*d[5mC]*kT*kT*k[5mC]; antisense) [compound 1075728]” the “YAP1 (% UTC)” value [7] was 15 % UTC.

For “716460 (kT*kA*kT*dT*d[5mC]*dT*dA*dA*dA*dT*dG*d[5mC]*dA*kT*kA*k[5mC]; antisense) [Compound 716460]”, the “YAP1 (% UTC)” value [1] was 86 % UTC.

With “1075399 (antisense k[5mC]*kA*kT*dA*dT*dA*dT*dA*dT*dG*dG*d[5mC]*d[5mC]*k[5mC]*kT*kT) [Compound 1075399]” the “YAP1 (% UTC)” value [5] was 15 % UTC.

With “1075346 (antisense kG*kT*kA*dA*dG*dT*dA*dA*dA*dA*d[5mC]*dT*dG*k[5mC]*kT*kG) [compound 1075346]” the “YAP1 (% UTC)” value [12] was 16 % UTC.

With “1074321 (antisense kG*kG*kG*d[5mC]*dT*dA*dA*d[5mC]*dT*d[5mC]*d[5mC]*dT*dG*kA*k[5mC]*kA) [compound 1074321]” the “YAP1 (% UTC)” value [2] was 73 % UTC.

For “716510 (antisense k[5mC]*kA*kA*d[5mC]*dA*dT*dG*d[5mC]*dT*dA*dT*dG*dT*kA*kA*kT) [Compound 716510]”, the “YAP1 (% UTC)” value [9] was 122 % UTC.

“716541 (antisense kT*kA*kA*dA*dG*dG*d[5mC]*dA*d[5mC]*dT*dA*d[5mC]*dA*kT*kT*kT) [Compound 716541]” was tested, and the “YAP1 (% UTC)” value [1] was 92 % UTC.

In the case of “1075498 (k[5mC]*kA*kT*dT*dA*dT*dA*dT*dA*dA*dT*dG*d[5mC]*kA*kG*kG; antisense) [Compound 1075498]”, the “YAP1 (% UTC)” value [3] is reported as 9 % UTC.

For “1075762 (kG*kA*kT*dA*dA*dA*dT*dG*dG*dG*dT*dT*dG*kA*kT*kT; antisense) [compound 1075762]”, the “YAP1 (% UTC)” value [12] was 20 % UTC.

“1074314 (antisense kA*kT*kT*dG*dA*dT*dA*dT*dT*d[5mC]*d[5mC]*dG*d[5mC]*kA*kT*kT) [Compound 1074314]” was tested, and the “YAP1 (% UTC)” value [3] was 12 % UTC.

With “1075312 (antisense kT*kT*kA*dA*dT*dT*dG*dA*dA*d[5mC]*dT*d[5mC]*dA*kG*kG*kG) [compound 1075312]” the “YAP1 (% UTC)” value [7] was 37 % UTC.

With “716411 (kT*k[5mC]*kT*dG*d[5mC]*dT*dG*dT*dG*dA*dG*dG*dG*k[5mC]*kA*kG; antisense) [Compound 716411]” the “YAP1 (% UTC)” value [9] was 102 % UTC.

For “1074635 (antisense kT*k[5mC]*k[5mC]*d[5mC]*dA*dA*dG*d[5mC]*dT*dG*dA*dG*dG*k[5mC]*kT*kT) [Compound 1074635]”, the “YAP1 (% UTC)” value [8] was 31 % UTC.

For “1074308 (antisense kG*k[5mC]*kA*dT*dT*dG*d[5mC]*d[5mC]*dT*dG*dT*dG*dG*k[5mC]*k[5mC]*kT) [Compound 1074308]”, the “YAP1 (% UTC)” value [11] was 132 % UTC.

Reference: patent US11214803B2, “Modulators of YAP1 expression” (Ionis Pharmaceuticals, Inc., priority 2019, dated 2022)
